Molecules are shown by their SMILES. The source made the active and inactive calls. No cut-off for these calls is given here.

The source of these data is ChEMBL document CHEMBL3217476, “Binding region and interaction properties of sulfoquinovosylacylglycerol (SQAG) with human vascular endothelial growth factor 165 revealed by biosensor-based assays” (Medchemcomm, 2011).

The target of assay [1] is T1, Vascular endothelial growth factor A, long form (Homo sapiens, UniProt P15692).
T1 sequence (P15692 whole entry): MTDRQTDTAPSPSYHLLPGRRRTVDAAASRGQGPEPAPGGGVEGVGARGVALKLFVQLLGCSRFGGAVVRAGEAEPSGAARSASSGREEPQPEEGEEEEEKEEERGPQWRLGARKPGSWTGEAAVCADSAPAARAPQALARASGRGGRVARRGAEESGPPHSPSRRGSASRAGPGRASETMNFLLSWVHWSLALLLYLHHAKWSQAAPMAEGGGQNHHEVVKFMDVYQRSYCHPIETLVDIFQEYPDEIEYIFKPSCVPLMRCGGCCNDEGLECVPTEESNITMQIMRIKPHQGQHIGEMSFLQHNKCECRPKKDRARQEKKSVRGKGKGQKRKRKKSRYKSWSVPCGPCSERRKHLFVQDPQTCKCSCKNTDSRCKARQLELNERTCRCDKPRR
In words: Binding affinity to His-tagged human recombinant full length VEGF165 (amino acid residues A1 to R165) expressed in Escherichia coli BL21 (DE3) cells by surface plasmon resonance assay.

The target of assay [2] is T2, Vascular endothelial growth factor A, long form (Homo sapiens) (UniProt P15692).
T2 sequence (whole entry): T1 sequence (P15692 whole entry)
Briefly: Inhibition of human VEGF165 heparin binding domain (amino acid residues A111 to R165) expressed in T7 phage/NRP1 interaction assessed as rescued phage titer ratio of del2 T7 phage particles at 10 uM preincubated with del2 T7 phage particles by QCM sensorgram analysis.

Assay [3] concerns the target T2, Vascular endothelial growth factor A, long form (Homo sapiens). Briefly: Binding affinity to His-tagged human recombinant full length VEGF165 (amino acid residues A1 to R165) expressed in Escherichia coli BL21 (DE3) cells at 0.125 to 2 uM by surface plasmon resonance assay. For orientation: Surface plasmon resonance follows binding to a sensor surface in real time, without labels.

For assay [4], the target named is Vascular endothelial growth factor A, long form (Homo sapiens, UniProt P15692, EX4DEL). In words: Binding affinity to His-tagged human recombinant truncated del4 VEGF165 (amino acid residues C137 to R165) expressed in Escherichia coli BL21 (DE3) cells by surface plasmon resonance assay.
The target of assay [5] is T2, Vascular endothelial growth factor A, long form (Homo sapiens). In words: Binding affinity to human VEGF165 heparin binding domain (amino acid residues A111 to R165) expressed in T7 phage assessed as increase in emergence ratio of del2 T7 phage particles from host Escherichia coli BLT5615 cells by QCM sensorgram analysis. Format: cell-based.
The target in assay [6] is Platelet-derived growth factor receptor beta (Mus musculus) (UniProt P05622). Briefly: Binding affinity to GST-fused mouse PDGFRB (amino acid residues L33 to E133) at 0.125 to 2 uM by surface plasmon resonance assay.
In assay [7] the target is DNA polymerase lambda (Homo sapiens) (UniProt Q9UGP5). Briefly: Binding affinity to human DNA polymerase lambda (amino acid residues M1 to R95) by surface plasmon resonance assay.
For assay [8], the target named is T2, Vascular endothelial growth factor A, long form (Homo sapiens). Briefly: Binding affinity to human VEGF165 C-terminal fragment of heparin binding domain (amino acid residues C137 to R165) expressed in T7 phage assessed as increase in emergence ratio of del4 T7 phage particles from host Escherichia coli BLT5615 cells by QCM sensorgram analysis. Format: cell-based.

Assay [9] has as its target Neuropilin-1 (Homo sapiens) (UniProt O14786). In words: Binding affinity to human NRP1 (amino acid residues M1 to K644) at 0.125 to 2 uM by surface plasmon resonance assay.
Assay [10] is filed under the species Homo sapiens. In words: Binding affinity to human sDLL-4 (amino acid residues S1 to P498) at 0.125 to 2 uM by surface plasmon resonance assay.
The species entered for assay [11] is Homo sapiens. Briefly: Binding affinity to human FGFR2 alpha (amino acid residues R22 to E378) at 0.125 to 2 uM by surface plasmon resonance assay.
The target of assay [12] is Vascular endothelial growth factor receptor 1 (Homo sapiens) (UniProt P17948). In words: Binding affinity to human VEGFR1 (amino acid residues S27 to I328) at 0.125 to 2 uM by surface plasmon resonance assay.
Assay [13] addresses Bone morphogenetic protein receptor type-2 (Homo sapiens) (UniProt Q13873). In words: Binding affinity to human BMPR2 (amino acid residues A26 to I151) at 0.125 to 2 uM by surface plasmon resonance assay.
In assay [14] the test system is Vascular endothelial growth factor A, long form (Homo sapiens), P15692 [UNDEFINED MUTATION]. In words: Binding affinity to His-tagged human recombinant truncated del1 VEGF165 (amino acid residues A1 to R110) expressed in Escherichia coli BL21 (DE3) cells at 0.125 to 2 uM by surface plasmon resonance assay.
In assay [15] the target is Insulin-like growth factor 1 (Homo sapiens) (UniProt P05019). Briefly: Binding affinity to human IGF-1 (amino acid residues G49 to A118) at 0.125 to 2 uM by surface plasmon resonance assay.
The subject of assay [16] is Vascular endothelial growth factor A, long form (Homo sapiens), P15692 [UNDEFINED MUTATION]. In words: Binding affinity to His-tagged human recombinant truncated del3 VEGF165 (amino acid residues A111 to T142) expressed in Escherichia coli BL21 (DE3) cells at 0.125 to 2 uM by surface plasmon resonance assay.
For assay [17], the target named is Bone morphogenetic protein 2 (Homo sapiens) (UniProt P12643). In words: Binding affinity to human BMP-2 (amino acid residues M1 to R115) at 0.125 to 2 uM by surface plasmon resonance assay.
For assay [18], the target named is Protein jagged-1 (Homo sapiens) (UniProt P78504). In words: Binding affinity to human Jagged-1 (amino acid residues S32 to S1046) at 0.125 to 2 uM by surface plasmon resonance assay.
Assay [19] addresses Angiopoietin-1 (Homo sapiens) (UniProt Q15389). Briefly: Binding affinity to human Ang-1 (amino acid residues N21 to F496) at 0.125 to 2 uM by surface plasmon resonance assay.
In assay [20] the target is T2, Vascular endothelial growth factor A, long form (Homo sapiens). Briefly: Binding affinity to human VEGF121 (amino acid residues A1 to R121) at 0.125 to 2 uM by surface plasmon resonance assay.
The target of assay [21] is Fibroblast growth factor 1 (Homo sapiens) (UniProt P05230). In words: Binding affinity to human FGF1 (amino acid residues M1 to D141) at 0.125 to 2 uM by surface plasmon resonance assay.
For assay [22], the target named is Fibroblast growth factor 2 (Homo sapiens) (UniProt P09038). Briefly: Binding affinity to human FGF2 (amino acid residues A1 to S154) at 0.125 to 2 uM by surface plasmon resonance assay.
In assay [23] the target is T2, Vascular endothelial growth factor A, long form (Homo sapiens). In words: Inhibition of human VEGF165 heparin binding domain (amino acid residues A111 to R165) expressed in T7 phage/NRP1 interaction assessed as rescued phage titer ratio of del2 T7 phage particles at 1 uM preincubated with del2 T7 phage particles by QCM sensorgram analysis.
The target of assay [24] is Vascular endothelial growth factor receptor 2 (Homo sapiens) (UniProt P35968). In words: Binding affinity to human VEGFR2 (amino acid residues A20 to E764) at 0.125 to 2 uM by surface plasmon resonance assay.
The target of assay [25] is Vascular endothelial growth factor A, long form (Homo sapiens, UniProt P15692, EX2DEL). In words: Binding affinity to His-tagged human recombinant truncated del2 VEGF165 (amino acid residues A111 to R165) expressed in Escherichia coli BL21 (DE3) cells by surface plasmon resonance assay.
The target of assay [26] is Ephrin type-B receptor 4 (Homo sapiens) (UniProt P54760). In words: Binding affinity to human EphB4 (amino acid residues L16 to A539) at 0.125 to 2 uM by surface plasmon resonance assay.
The target in assay [27] is Angiopoietin-1 receptor (Homo sapiens) (UniProt Q02763). Briefly: Binding affinity to human Tie-2 (amino acid residues A23 to K745) at 0.125 to 2 uM by surface plasmon resonance assay.
Assay [28] concerns the target Ephrin type-B receptor 2 (Homo sapiens) (UniProt P29323). Briefly: Binding affinity to human EphB2 (amino acid residues V27 to K458) at 0.125 to 2 uM by surface plasmon resonance assay.
In assay [29] the target is Neurogenic locus notch homolog protein 1 (Homo sapiens) (UniProt P46531). Briefly: Binding affinity to human Notch-1 (amino acid residues A19 to Q526) at 0.125 to 2 uM by surface plasmon resonance assay.
Assay [30] addresses Pro-epidermal growth factor (Homo sapiens) (UniProt P01133). Briefly: Binding affinity to human EGF (amino acid residues N1 to R53) at 0.125 to 2 uM by surface plasmon resonance assay.
Assay [31] has as its target Epidermal growth factor receptor (Homo sapiens) (UniProt P00533). Briefly: Binding affinity to human EGFR (amino acid residues L25 to S645) at 0.125 to 2 uM by surface plasmon resonance assay.
Assay [32] addresses Insulin-like growth factor 1 receptor (Homo sapiens) (UniProt P08069). Briefly: Binding affinity to human IGF-1 receptor (amino acid residues E31 to N932) at 0.125 to 2 uM by surface plasmon resonance assay.
Assay [33] deals with Transforming growth factor beta-2 proprotein (Homo sapiens) (UniProt P61812). In words: Binding affinity to human TGFbeta2 (amino acid residues A1 to S112) at 0.125 to 2 uM by surface plasmon resonance assay.
For assay [34], the species on record is Homo sapiens. Briefly: Binding affinity to human PDGF-BB (amino acid residues S1 to T110) at 0.125 to 2 uM by surface plasmon resonance assay.
In assay [35] the target is TGF-beta receptor type-2 (Homo sapiens) (UniProt P37173). In words: Binding affinity to human TGFbetaR2 (amino acid residues M1 to D159) at 0.125 to 2 uM by surface plasmon resonance assay.
Assay [36] concerns the target T2, Vascular endothelial growth factor A, long form (Homo sapiens). In words: Binding affinity to His-tagged human recombinant full length VEGF165 (amino acid residues A1 to R165) expressed in Escherichia coli BL21 (DE3) cells at 1.25 to 20 uM by surface plasmon resonance assay.

By Kd is commonly meant the concentration at which binding is half-saturated. For the compound `CCCCCCCCCCCCCCCCCC(=O)OCC(O)CO[C@H]1O[C@H](CS(=O)(=O)O)[C@@H](O)[C@H](O)[C@H]1O` (stereo not given in full), the Kd in assay [1] was determined as 18000 nM. Also, in assay [2], the inhibition entry was “Active”.
Consider `CCCCCCCCCCCCCCCCCC(=O)OCC(CO[C@H]1O[C@H](CS(=O)(=O)O)[C@@H](O)[C@H](O)[C@H]1O)OC(=O)CCCCCCCCCCCCCCCCC` (stereo not given in full), for which, in [1], the equilibrium dissociation constant (Kd) was determined as 0.025 nM.
For `O=S(=O)(O)C[C@H]1O[C@@H](OCC(O)CO)[C@H](O)[C@@H](O)[C@@H]1O` (stereo not given in full), the outcome in assay [3] was inactive.
In the case of `CCCCCCCCCCCCCCCCCC(=O)OCC(CO[C@@H]1O[C@H](CS(=O)(=O)O)[C@@H](O)[C@H](O)[C@H]1O)OC(=O)CCCCCCCCCCCCCCCCC` (stereo not given in full), the Kd came out at 1400 nM in assay [4], 9.9 nM in assay [7], 0.046 nM in assay [1] and 0.025 nM in assay [25]. For the same compound, the result in assay [5] and in assay [8] was Active. The result (in assay [6]; in [9]; in the assay filed under Homo sapiens [10]; in the assay listed under Homo sapiens [11]; in assay [12]; in [13]) was inactive. Also, the result in assay [14], in assay [15], in [16], in [17], in assay [18] and in assay [19] was inactive. Besides, the outcome in assay [20], in assay [21], in assay [22], in assay [24], in [26] and in assay [27] was inactive. For the same compound, the result in assay [28], in assay [29], in assay [30], in [31], in assay [32] and in [33] was inactive. Also, the outcome (in the assay filed under Homo sapiens [34]; in assay [35]) was inactive. Further, in assay [23], the inhibition result was “Active”.
`CCCCCCCCCCCCCCCCCC(=O)OCC(CO[C@@H]1O[C@H](CO)[C@@H](O)[C@H](O)[C@H]1O)OC(=O)CCCCCCCCCCCCCCCCC` (stereo not given in full): the outcome in [3] was inactive.
On to `CCCCCCCCCC(=O)OCC(O)CO[C@H]1O[C@H](CS(=O)(=O)O)[C@@H](O)[C@H](O)[C@H]1O` (stereo not given in full), for which, in [36], the outcome was inactive.
For `CCCCCCCCCCCCCCCCCC(=O)OCC(O)CO[C@@H]1O[C@H](CS(=O)(=O)O)[C@@H](O)[C@H](O)[C@H]1O` (stereo not given in full), the Kd in assay [1] worked out at 16000 nM.
